# Test results: US5583108A, “Vasonatrin peptide and analogs thereof” (Mayo Foundation for Medical Education and Research, priority 1994, dated 1996)
# Assays:
# [1] = system: isolated normal canine blood vessels; assay: Organ chamber isometric force: relaxation of phenylephrine-contracted vessel rings; design: species or system dog; conditions: for relaxation: maximal dose (3×10^-6 M); for maximal response, percent change in tension from a contraction to phenylephrine: peptide 3 × 10^-6 M, mean ± SEM
# Protocol: (§1) The results obtained are expressed as the means ±SEM. In organ chamber studies, n equals the number of dogs from which rings were taken. Rings with and without endothelium were studied in parallel, and Student's t-test for unpaired observations was used to determine statistical significance among the responses of rings with and without endothelium and between responses of arteries and veins. In rat studies, the data were analyzed using ANOVA for repeated measures followed by Fisher's least significant difference test when appropriate within the group. Data between groups were analyzed by Student's unpaired t-test. Statistical significance was determined at p<0.05.
# Rings cut from femoral, saphenous, renal and pulmonary arteries and veins obtained from random source mongrel dogs (anesthetized with 30 mg/kg pentobarbital sodium intravenously) were suspended for the measurement of isometric force in organ chambers filled with aerated (95% O2 and 5% CO2) modified Krebs-Ringer bicarbonate solution (composition in mM: 118.3 NaCl, 4.7 KCl, 2.5 CaCl2, 1.2 MgSO4, 1.2 KH2 PO4, 25.0 NaHCO3, 0.026 calcium sodium EDTA, and 11.1 dextrose; control solution) at 37° C. In one-half rings, the endothelium was removed by gently rubbing the intimal surface with a cotton swab wetted with control solution. Each ring was stretched to the optimal point on its length-tension curve as determined by the tension developed to norepinephrine (3×10^-7 M) at each level of stretch. The presence of endothelium was determined at the beginning of the experiment by a relaxation to acetylcholine (10^-6 M) during a contraction to norepinephrine at optimal length. The maximal tension of each ring was determined by norepinephrine (10^-4 M). To study responses to ANP, CNP and VNP, the rings were contracted with phenylephrine (10^-6 M). These contractions averaged 30-40% of the maximal contraction to norepinephrine. The peptides were added cumulatively once the contraction had stabilized.
# The following commercially available drugs were used: acetylcholine chloride (Sigma Chemical, St. Louis, Mo.), human ANP and human CNP (Peninsula Laboratories, Belmont, Calif.), L-norepinephrine bitartrate (Sigma), phenylephrine bitartrate (Sigma). All drugs were dissolved in distilled water immediately prior to study, and the concentrations are reported as the final molar concentration (M) in the organ chamber.
# normal rats = assay: Cardiorenal actions after intravenous bolus in anesthetized normal rats; type: in vivo, Wistar rats; conditions: for MAP mean arterial pressure / HR heart rate / RAP right atrial pressure / UKV urine potassium excretion / UNaV urine sodium excretion / UV urine volume / UcGMPV urine cGMP volume / PcGMP plasma cGMP: mean ± SEM; for MAP mean arterial pressure: n = 4
# Protocol: as §1
# Experiments were conducted in accordance with the Animal Welfare Act. Wistar rats and spontaneously hypertensive rats (SHR) (400 g; Harlan Sprague-Dawley, Indianapolis, Ind.) were anesthetized with Inactin (100 mg/kg; intraperitoneal; BYK Gulden, Konstanz, Germany). The body temperature was maintained between 36° and 38° C. by a heating pad. Tracheostomy was performed; however, the animals were not artificially ventilated. Polyethylene catheters (PE-50; Becton Dickinson Co., Parsippany, N.J.) were placed in the left Jugular vein for infusions of saline and drugs, in the right jugular vein to right atrium to monitor right atrial pressure, and in the carotid artery for the collection of blood samples and to monitor mean arterial pressure. A PE-90 catheter was placed in the bladder for urine collection.
# Experiments were conducted in three groups in normal rats: ANP group (n=4), CNP group (n=4), and VNP group (n=4). VNP also was studied in SHR rats (n=4). Intravenous infusions of saline solution (0.9% NaCl) were performed (1 ml/100 gm body weight/hr) through the left jugular vein catheter. After completion of surgery, rats were allowed to stabilize for 30 minutes. In each group, a 15-min baseline period followed. After the baseline period, saline solution (0.9% NaCl) was administered in a bolus fashion (0.1 ml) and was followed by a 15-min period. After the saline period, the peptide (ANP, CNP or VNP) was administered in a bolus fashion (0.1 ml) at 5 μg/kg which was followed by a 15-min period. This was followed by a second bolus (0.1 ml) at 50 μg/kg and a 15-min period. After a 30-min washout, a 15-min recovery period followed. During each experimental period, mean arterial pressure (MAP), heart rate (HR), and right atrial pressure (RAP) were measured. At the midpoint of baseline, second bolus fashion (50 μg/kg) and recovery periods, blood was sampled for plasma cGMP. At the end of each period, urine was measured for volume (UV), and samples were stored for electrolytes and cGMP analysis.
# Blood for plasma cGMP analysis was collected into EDTA tubes, immediately placed on ice, and centrifuged at […] at 4° C. Plasma was separated and stored at -20° C. until assay. Urine for cGMP determination was heated to >90° C. before storage. Plasma and urine cGMP were determined by a specific RIA as previously described by A. L. Steiner et al., J. Hypertension, 5 (Suppl. 5) 551-553 (1987).
# [2] = normal rats, high dose (50 μg/kg) bolus
smiles,measurement,setting,value
"CC[C@H](C)[C@@H]1NC(=O)[C@H](CCCNC(=N)N)NC(=O)[C@H](CC(=O)O)NC(=O)[C@H](CCSC)NC(=O)[C@H](CCCNC(=N)N)NC(=O)CNC(=O)CNC(=O)[C@H](Cc2ccccc2)NC(=O)[C@@H](NC(=O)[C@H](CO)NC(=O)[C@H](CO)NC(=O)[C@H](CCCNC(=N)N)NC(=O)[C@H](CCCNC(=N)N)NC(=O)[C@H](CC(C)C)NC(=O)[C@@H](N)CO)CSSC[C@@H](C(=O)N[C@@H](CC(N)=O)C(=O)N[C@@H](CO)C(=O)N[C@@H](Cc2ccccc2)C(=O)N[C@@H](CCCNC(=N)N)C(=O)N[C@@H](Cc2ccc(O)cc2)C(=O)O)NC(=O)CNC(=O)[C@H](CC(C)C)NC(=O)CNC(=O)[C@H](CO)NC(=O)[C@H](CCC(N)=O)NC(=O)[C@H](C)NC(=O)CNC1=O [ANP, atrial natriuretic peptide]",relaxation,[1]; femoral and saphenous arteries,no effects
same,"maximal response, percent change in tension from a contraction to phenylephrine","[1]; femoral artery, with endothelium, phenylephrine 10^-6 M",10 ± 5%
same,"maximal response, percent change in tension from a contraction to phenylephrine","[1]; femoral artery, without endothelium",19 ± 12%
same,"maximal response, percent change in tension from a contraction to phenylephrine","[1]; femoral vein, with endothelium",6 ± 3%
same,"maximal response, percent change in tension from a contraction to phenylephrine","[1]; femoral vein, without endothelium",4 ± 4%
same,relaxation,[1]; femoral veins,no effect
same,"maximal response, percent change in tension from a contraction to phenylephrine","[1]; pulmonary artery, with endothelium",60 ± 7%
same,"maximal response, percent change in tension from a contraction to phenylephrine","[1]; pulmonary artery, without endothelium",75 ± 8%
same,"maximal response, percent change in tension from a contraction to phenylephrine","[1]; pulmonary vein, with endothelium",49 ± 5%
same,"maximal response, percent change in tension from a contraction to phenylephrine","[1]; pulmonary vein, without endothelium",16 ± 3%
same,"maximal response, percent change in tension from a contraction to phenylephrine","[1]; renal artery, with endothelium",27 ± 6%
same,"maximal response, percent change in tension from a contraction to phenylephrine","[1]; renal artery, without endothelium",30 ± 6%
same,"maximal response, percent change in tension from a contraction to phenylephrine","[1]; renal vein, with endothelium",12 ± 3%
same,"maximal response, percent change in tension from a contraction to phenylephrine","[1]; renal vein, without endothelium",11 ± 4%
same,"maximal response, percent change in tension from a contraction to phenylephrine","[1]; saphenous artery, with endothelium",0 ± 0%
same,"maximal response, percent change in tension from a contraction to phenylephrine","[1]; saphenous artery, without endothelium",3 ± 3%
same,"maximal response, percent change in tension from a contraction to phenylephrine","[1]; saphenous vein, with endothelium",0 ± 0%
same,"maximal response, percent change in tension from a contraction to phenylephrine","[1]; saphenous vein, without endothelium",0 ± 0%
same,relaxation,[1]; saphenous veins,no effect
same,"relaxation, % of the contraction to phenylephrine","[1]; systemic arteries (femoral, saphenous and renal)",less than 30%
same,natriuretic action (in words),"normal rats; in vivo, rat",potent natriuretic
same,change in MAP and RAP (in words),normal rats; [2],significant decrease
same,"change in urine flow, sodium excretion, plasma cGMP and urinary cGMP volume (in words)",normal rats; [2],increased
same,MAP mean arterial pressure,"normal rats; normal rats, iv bolus 5 μg/kg, 15-min period",97 ± 12 mmHg
same,HR heart rate,"normal rats; normal rats, iv bolus 5 μg/kg",353 ± 14 beats/min
same,RAP right atrial pressure,"normal rats; normal rats, iv bolus 5 μg/kg",-2.3 ± 0.8 mmHg
same,UKV urine potassium excretion,"normal rats; normal rats, iv bolus 5 μg/kg",10.3 ± 3.5 µmol/min
same,UNaV urine sodium excretion,"normal rats; normal rats, iv bolus 5 μg/kg",13.2 ± 3.5 µmol/min
same,UV urine volume,"normal rats; normal rats, iv bolus 5 μg/kg",79 ± 10 µL/min
same,UcGMPV urine cGMP volume,"normal rats; normal rats, iv bolus 5 μg/kg",605 ± 151 pmol/min
same,HR heart rate,"normal rats; normal rats, iv bolus 50 μg/kg",355 ± 19 beats/min
same,PcGMP plasma cGMP,"normal rats; normal rats, iv bolus 50 μg/kg",25.7 ± 7.1 pmol/mL
same,RAP right atrial pressure,"normal rats; normal rats, iv bolus 50 μg/kg",-3.8 ± 0.8 mmHg
same,UKV urine potassium excretion,"normal rats; normal rats, iv bolus 50 μg/kg",24.4 ± 8.7 µmol/min
same,UNaV urine sodium excretion,"normal rats; normal rats, iv bolus 50 μg/kg",68.2 ± 15.7 µmol/min
same,UV urine volume,"normal rats; normal rats, iv bolus 50 μg/kg",341 ± 41 µL/min
same,UcGMPV urine cGMP volume,"normal rats; normal rats, iv bolus 50 μg/kg",2580 ± 505 pmol/min
same,MAP mean arterial pressure,"normal rats; normal rats, recovery period after 30-min washout",92 ± 11 mmHg
same,HR heart rate,"normal rats; normal rats, recovery period",368 ± 23 beats/min
same,PcGMP plasma cGMP,"normal rats; normal rats, recovery period",3.2 ± 0.3 pmol/mL
same,RAP right atrial pressure,"normal rats; normal rats, recovery period",-0.8 ± 0.9 mmHg
same,UKV urine potassium excretion,"normal rats; normal rats, recovery period",2.4 ± 0.1 µmol/min
same,UNaV urine sodium excretion,"normal rats; normal rats, recovery period",8.9 ± 3.5 µmol/min
same,UV urine volume,"normal rats; normal rats, recovery period",48 ± 14 µL/min
same,UcGMPV urine cGMP volume,"normal rats; normal rats, recovery period",105 ± 63 pmol/min
same,MAP mean arterial pressure,"normal rats; normal rats, second iv bolus 50 μg/kg, 15-min period",69 ± 7 mmHg
